89 compounds from a melting point compilation (Tetko et al.; mined from patent text by program, amines drawn as free bases though some values may be those of a salt) can be followed below.

Bounds are passed on as bounds.

By melting point is commonly meant the temperature, or range, at which the solid turns liquid. Compound `c1ccc(-c2ccc(OC3CN(C(c4ccccc4)c4ccccc4)C3)cc2)cc1` yielded a melting point of 141 to 142 °C.
In the case of `COc1cc2c(cc1O)CCN(Cc1ccc(OC)c(OC)c1OC)C2`, the melting point lay within 65 to 66 °C.
The compound `O=[N+]([O-])C=Cc1ccc(OCc2ccccc2)c(OCc2ccccc2)c1` registered a melting point of 118 to 119 °C.
Under `O=C(O)[C@H](Cc1ccccc1)NS(=O)(=O)c1ccc2c(c1)Sc1ccccc1O2` stands 120 to 130 °C.
To `Cn1c(O)nc2cc(Cn3ccnc3)ccc21` belongs 207 °C.
As for `CC(C)Oc1cc(CCC(=O)NS(=O)(=O)C(C)C)n(Cc2ccc(Cl)cc2Cl)n1`, the melting point was in the range of 135 to 136 °C.
To `Clc1ccc(N2CCN(CCc3ccccc3)CC2)nn1` belongs 140 °C; to `CC1COc2cccc3[nH]c(=O)n1c23` (centres undefined), 137 °C.
Under `CCCc1c(OCc2cccc(C(=O)OC)c2)ccc(C(C)=O)c1O` stands 141 to 143 °C; under `OC1(C#Cc2ccc(OCCOc3ccccc3)cc2)CN2CCC1CC2` (centres undefined), 207 to 208 °C; under `Cc1nc(C(N)=O)c2n1-c1ccc(Cl)cc1C(c1ccccc1F)=NC2`, 300 to 305 °C.
To `COc1ccc(OC)c(C(=O)Cl)c1` belongs 36 to 38 °C.
In the case of `Cc1cc2c(N=C=S)cccc2cn1`, the melting point came out at 92 °C.
For `CN1C(=O)C(C2=COc3ccccc3O2)=C(c2c[nH]c3cc(F)ccc23)C1=O`, the melting point amounted to 214 °C.
Consider `CC(C)(C)OC(=O)N1Cc2cscc2C1`, for which the melting point was in the range of 36 to 38 °C.
Under `O=C1c2ccccc2C(=O)N1CCCCN1CCN(c2ncccn2)CC1` stands 138 °C.
To `COc1ccc(S(=O)(=O)N(CC(N)=O)c2ccc(N(C)C)cc2Cc2ccccc2Cl)cc1OC` belongs 130 °C; to `O=C(O)Cc1ccc(Sc2ccc(O)cc2)cc1`, 163 to 165 °C; to `Clc1cc2nc(-c3ccncc3)[nH]c2cc1Cl`, 297 °C.
To `Cc1ccc(N2CCC3CCc4cnccc4C3=N2)cc1` (centres undefined) belongs 158 to 159 °C; to `CCCCc1n[nH]c(C(F)(F)CCC)n1`, 92 to 93 °C.
In the case of `COc1cc2c(cc1OC(C)=O)CCC1C2CCC2(C)C1C=CC21OCCO1` (centres undefined), the melting point fell in the range of 161 to 162 °C.
`COc1cc(NC(=O)CCCCCN2CCN(c3ccccn3)CC2)c2nccc(C)c2c1` returned a melting point of 120 to 121 °C.
Under `COc1ccc(OC)c(C(=O)c2ccc(OCc3ccccc3)cc2)c1` stands 111 to 113 °C; under `CC(C)(C)C(=O)OCOC(=O)C1CCc2c(c3ccccc3n2C(=O)c2ccccc2)C1` (centres undefined), 75 to 77 °C.
In turn, `Cc1cn(C(C)(C(=O)N(C)C)c2ccccc2)nc1-c1ccccc1Cl` (centres undefined) registered a melting point of 96 to 99 °C.
To `CCOC(=O)N1CCN(c2ccc(-n3cn[nH]c3=O)cn2)CC1` belongs 221 °C; to `COCCC(=O)OC1(C(=O)CO)CCC2C3CCC4=CC(=O)CCC4(C)C3C(O)CC21C` (centres undefined), 172 °C; to `CC(C)C(C)NC1=NS(=O)(=O)c2cc([N+](=O)[O-])ccc2N1` (centres undefined), 308 to 311 °C.
On to `Clc1ccccc1CN1CC=C(c2cc3ccccc3s2)CC1`, for which the melting point lay within 105 to 106 °C.
The compound `CCN(CC)CCn1nc2c3c(c(CNS(C)(=O)=O)ccc31)Sc1ccccc1-2` gave a melting point of 120 to 125 °C.
Under `CCCCNC(=O)NS(=O)(=O)c1ccc(CCNC(=O)N2CCC(C)CC2=O)cc1` (centres undefined) stands 159 to 161 °C; under `N#CNc1nc2ccccc2o1`, 175 °C; under `CN(C(CCn1c(=O)[nH]c2ncccc2c1=O)C(=O)NO)S(=O)(=O)c1ccc(Oc2ccccc2)cc1` (centres undefined), 125 to 126 °C.
Regarding `CC(C)(C)NC(=O)c1nn(-c2ccc(C(F)(F)F)cc2)c2c1C1CCC2CC1`, the melting point fell in the range of 174 to 176 °C.
As to `CCc1nc2ccccc2c(=O)n1-c1ccccc1C`, the melting point lay in the range of 93 to 94 °C.
In turn, `CN(C)C=C1C(=O)N(c2cccc(C#N)c2)c2ccccc21` had a melting point of 140 to 143 °C.
Turning to `COc1ccc(CN2C(=O)CN(Cc3ccc4c(OC)ccnc4c3)S2(=O)=O)c(OC)c1`, the melting point is 128 to 132 °C.
Take `c1ccc(P(c2ccccc2)c2c3ccccc3cc3ccccc23)cc1`: the melting point amounted to 204 °C.
Under `NCc1cn2ccccc2n1` stands 91 to 93 °C; under `NS(=O)(=O)c1ccc2c(c1)C(=O)CCC2`, 197 to 198 °C.
Under `N#CC(N=Cc1ccc([N+](=O)[O-])cc1)=C(Cl)Cl` stands 171 to 174 °C.
Under `CC(=O)OC1O[C@H](CC#N)[C@@H](OC(=O)c2ccccc2)[C@H]1OC(=O)c1ccccc1` (some centres undefined) stands 124 to 126 °C.
In turn, `CSc1ccc(CNC(=O)c2sc(NC(C)=O)nc2CCc2ccc(NC(=O)OC(C)(C)C)cc2)cc1` showed a melting point of 182 to 183 °C.
Under `Cn1nccc1-n1ccnc1S(N)(=O)=O` stands 230 to 233 °C; under `CS(=O)(=O)c1ccc2cc[nH]c2c1`, 149 to 152 °C.
For the compound `O=c1c2c(nc3ccc(Br)cn13)C(=Cc1ccc(Cl)cc1)CC2`, the melting point lay within 233 to 234 °C.
In turn, `Cc1csc(-c2nc(=O)c3ccccc3s2)n1` came in with a melting point of 210 to 211 °C.
For `CC(=O)OCc1cccc2c1nc(-c1c(F)cccc1F)n2Cc1c(F)cccc1F`, the melting point lay within 126 to 127 °C.
To `CN(Cc1ccc(NC(=O)C2=Cc3cc(-c4ccc(-n5ccnc5)cc4)ccc3OCC2)cc1)C1CCOCC1` belongs 194 to 195 °C; to `CCCCCCCCCCCCCCCCCC(=O)Oc1ccc([N+](=O)[O-])cc1OC(=O)CCCCCCCCCCCCCCCCC`, 68 to 70 °C; to `CNS(=O)(=O)c1cccc(NC(=O)c2cnn3c(C(F)(F)F)cc(-c4ccc(C(F)(F)F)cc4)nc23)c1`, 232 °C.
As to `c1ccc(NC2=NC(Nc3ccccc3)(c3ccccc3)C(c3ccccc3)=N2)cc1` (centres undefined), the melting point was 153 to 156 °C.
To `CCNC(=O)c1ccc(N2CCN(Cc3cc4c(c(OCC)c3)OC(C)C(=O)N4)CC2)c(Cl)c1` (centres undefined) belongs 187 to 199 °C.
`CCCNC1=Nc2cccnc2N(CC)c2ncccc21` had a melting point of 114 to 116 °C.
Take `COc1cc2nc(Cl)nc(Cl)c2c(OC)c1OC`: the melting point lay within 213 to 215 °C.
Under `CC(C)(C)c1cccc(C[C@@H](NC(=O)c2ccc(F)c3ccccc23)[C@@H](O)c2cccc(Cl)c2)c1` (racemic) stands 76 to 78 °C.
To `CCCCCCN(CCCC(=O)Nc1c(SC)nc(C)nc1N(CC)CC)c1ccc(Br)cc1` belongs 89.8 to 93 °C; to `CON(C)C(=O)Nc1ccc(OCCc2ccc(C)cc2)cc1`, 82 to 83 °C.
Compound `COc1ccccc1C1(O)C(O)CC(c2ccccc2)(c2ccccc2)C2CN(C(=O)Cc3ccccc3O)CC21` (centres undefined) registered a melting point of 188 to 190 °C.
In turn, `COc1cc(N)c(Br)cc1C(=O)NC1CCN(CC2CCN(C(N)=O)CC2)CC1` returned a melting point of 228 to 230 °C.
Under `O=C(c1ccc(Cl)cc1)c1ccc(CS(=O)(=O)C(F)F)cc1` stands 154 to 157 °C; under `CC(C#N)(c1ccc(Cl)cc1)c1ccc(N)cc1Cl` (centres undefined), 135 °C.
Under `O=c1cc(CO)occ1OCCC12CC3CC(CC(C3)C1)C2` stands 155 to 157 °C.
To `O=C1C=C(NC(=O)C(=O)c2cn(Cc3ccc(Cl)cc3)c3cccc(NC(=O)c4ccc(Cl)cc4)c23)CO1` belongs over 300 °C.
`CN1C2=NCCN2C(=O)c2cccnc21`: the melting point was 168 to 171 °C.
In turn, `CCSc1nc(NC(C)=O)ccc1[N+](=O)[O-]` had a melting point of 168 °C.
Under `Cc1cccc2c1NCC(=O)N2` stands 168 to 171 °C; under `CC(C)CN1C(=O)c2cnc(-c3ccccc3)nc2N(C(=O)CN2CCCCC2)c2ccccc21`, 193 to 194 °C; under `CCN=C(NC(=O)OC(C)(C)C)Nc1cc(C(C)c2ccc(-c3ccccc3)c(F)c2)no1` (centres undefined), 87 to 92 °C.
In turn, `Oc1ccccc1Cc1ccc2ccccc2c1O` displayed a melting point of 124 to 125 °C.
To `CN1C(=O)C[C@@H](c2ccccc2)[C@H]1C(=O)c1ccccc1` belongs 115 to 116 °C; to `CC(C)c1cc(C=C2NC(=S)NC2=O)cc(C(C)C)c1O`, 225 to 230 °C; to `CCNC(=O)OCCOc1ccc(Oc2ccc(F)cc2)cc1Cl`, 42 to 43 °C.
To `CCc1nc2ccc3c(c2o1)C(CCNC(C)=O)CC3` (centres undefined) belongs 76 to 78 °C; to `COC(=O)CCC1(NC(=O)c2cc3c4ccccc4n(C(C)=O)c3cn2)C(=O)N(c2ccccc2)c2ccccc21` (centres undefined), 189 to 192 °C; to `CC(C)(C)c1ccc(S(=O)(=O)Nc2ncnc(OCCO)c2Br)cc1`, 146 to 148 °C.
Regarding `ClCN1C=C(Cl)C(Cl)=CN1`, the melting point fell in the range of 69 to 70 °C.
Under `CCCCCCCCCCCCCCOc1ccc(C(=O)O)cc1C(C)(C)C` stands 121 to 123 °C.
To `COc1cc(N2CCCN(C)CC2)ccc1Nc1ncc2ccc(-c3ccccc3N(C)S(C)(=O)=O)n2n1` belongs 98 to 105 °C; to `C#CC1(CO)C=CC(n2cc(C)c(=O)[nH]c2=O)O1` (centres undefined), 207 to 209 °C.
Under `N#CCCCCn1c(=O)sc2c(=O)[nH]c(N)nc21` stands 240 to 243 °C.
For the compound `CC(=O)Nc1ccc2oc(-c3ccc(OCc4ccccc4)cc3)c(O)c(=O)c2c1`, the melting point fell in the range of 255 to 258 °C.
As to `CCCCCCCCCC1SC(c2cccnc2)NC1=O` (centres undefined), the melting point lay in the range of 90 to 95 °C.
Under `CC(C)(Oc1ccc(CCCOc2ccc(-c3ccccc3)cc2)cc1)C(=O)O` stands 130 to 133 °C; under `O=C(Cc1ccccc1C(=O)O)Nc1cccc(/C=C/c2nc(C3CCCC3)cs2)c1`, 209 to 210 °C.
To `O=c1[nH]c2cc(Br)cc(Br)c2c(=O)n1Cc1ccccc1Cl` belongs 133 to 136 °C.
To `CC(=O)n1nc(SCc2ccccc2)nc1N` belongs 146 °C.
On to `O=C(NC=C(c1ccccc1)c1ccccc1)c1sc2ccc(F)cc2c1O`, for which the melting point lay in the range of 186 to 189 °C.
